Assay results as given in US6878731B2, “Imidazole alkaloids from Lepidium meyenii and methods of usage” (Pure World Botanicals, Inc., priority 2002, dated 2005).

Key:
[1] = system: A-549 (human lung carcinoma); settings: A-549 cell line
[2] = system: UMUC3 (human bladder carcinoma); settings: UMUC3 cell line
[3] = system: HT-29 (human colon adenocarcinoma); settings: HT-29 cell line
[4] = system: PC-3 (human prostate adenocarcinoma); settings: PC-3 cell line
[5] = system: PACA2 (human pancreatic adenocarcinoma); settings: PACA2 cell line
[6] = system: A4982LM (human kidney carcinoma); settings: A4982LM cell line
[7] = system: MDA231 (human breast carcinoma); settings: MDA231 cell line
[8] = system: FDIGROV (human ovarian carcinoma); settings: FDIGROV cell line

| SMILES | Cytotoxic activity ED50, A-549 [1] [µg/mL] | Cytotoxic activity in words, A-549 [1] | Cytotoxic activity ED50, UMUC3 [2] [µg/mL] | Cytotoxic activity ED50, HT-29 [3] [µg/mL] | Cytotoxic activity in words, HT-29 [3] | Cytotoxic activity ED50, PC-3 [4] [µg/mL] | Cytotoxic activity in words, PC-3 [4] | Cytotoxic activity ED50, PACA2 [5] [µg/mL] | Cytotoxic activity ED50, A4982LM [6] [µg/mL] | Cytotoxic activity in words, A4982LM [6] | Cytotoxic activity ED50, MDA231 [7] [µg/mL] | Cytotoxic activity ED50, FDIGROV [8] [µg/mL] | ED50, FDIGROV [8] [µg/mL] |
| --- | --- | --- | --- | --- | --- | --- | --- | --- | --- | --- | --- | --- | --- |
| Cc1c(C)[n+](Cc2ccccc2)cn1Cc1ccccc1.[Cl-] [Compound 1, 1,3-bis(phenylmethyl)-4,5-dimethyl-1H-imidazlium chloride] | >10 | inactive | >10 | >10 | inactive | >10 | inactive | >10 | >10 | inactive | >10 | 7.39 | 7390 |
| Cc1c(C)[n+](Cc2ccccc2)c(C)n1Cc1ccccc1.[Cl-] [Compound 2, 1,3-bis(phenylmethyl)-2,4,5-trimethyl-1H-imidazlium chloride] | >10 | inactive | 6.47 | >10 | inactive | >10 | inactive | 1.38 | >10 | inactive | 1.66 | 5.26 | 5260 |
